Tests used:
Type in all cases: binding
JAK2 = target: T1, JAK2 (Homo sapiens, UniProt O60674); assay: Kinobeads assay, JAK2; settings: mixed Molt4/Ramos lysate, read-out: Inhibition values (IC50) JAK2
T1 construct: endogenous in cells; host or cells: Molt4 (ATCC CRL-1582) and Ramos (ATCC CRL-1596), mixed lysate 1:2
In short: (§1)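 Mixed Molt4/Ramos lysate (1:2, 10 mg/mL protein) was incubated 3 h in the cold with the immobilized aminopyrido-pyrimidine affinity matrix and compound, 9-step 1:3 dilutions. Bead-bound kinases were eluted and quantified by antibody dot blot with infrared detection. IC50s are from dose-response curves.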

TYK2 = target: T2, TYK2 (Homo sapiens, UniProt P29597); assay: Kinobeads assay, TYK2; settings: mixed Molt4/Ramos lysate, read-out: Inhibition values (IC50) TYK2
T2 construct: endogenous in cells; host or cells: Molt4 (ATCC CRL-1582) and Ramos (ATCC CRL-1596), mixed lysate 1:2
T2 sequence (P29597 whole entry): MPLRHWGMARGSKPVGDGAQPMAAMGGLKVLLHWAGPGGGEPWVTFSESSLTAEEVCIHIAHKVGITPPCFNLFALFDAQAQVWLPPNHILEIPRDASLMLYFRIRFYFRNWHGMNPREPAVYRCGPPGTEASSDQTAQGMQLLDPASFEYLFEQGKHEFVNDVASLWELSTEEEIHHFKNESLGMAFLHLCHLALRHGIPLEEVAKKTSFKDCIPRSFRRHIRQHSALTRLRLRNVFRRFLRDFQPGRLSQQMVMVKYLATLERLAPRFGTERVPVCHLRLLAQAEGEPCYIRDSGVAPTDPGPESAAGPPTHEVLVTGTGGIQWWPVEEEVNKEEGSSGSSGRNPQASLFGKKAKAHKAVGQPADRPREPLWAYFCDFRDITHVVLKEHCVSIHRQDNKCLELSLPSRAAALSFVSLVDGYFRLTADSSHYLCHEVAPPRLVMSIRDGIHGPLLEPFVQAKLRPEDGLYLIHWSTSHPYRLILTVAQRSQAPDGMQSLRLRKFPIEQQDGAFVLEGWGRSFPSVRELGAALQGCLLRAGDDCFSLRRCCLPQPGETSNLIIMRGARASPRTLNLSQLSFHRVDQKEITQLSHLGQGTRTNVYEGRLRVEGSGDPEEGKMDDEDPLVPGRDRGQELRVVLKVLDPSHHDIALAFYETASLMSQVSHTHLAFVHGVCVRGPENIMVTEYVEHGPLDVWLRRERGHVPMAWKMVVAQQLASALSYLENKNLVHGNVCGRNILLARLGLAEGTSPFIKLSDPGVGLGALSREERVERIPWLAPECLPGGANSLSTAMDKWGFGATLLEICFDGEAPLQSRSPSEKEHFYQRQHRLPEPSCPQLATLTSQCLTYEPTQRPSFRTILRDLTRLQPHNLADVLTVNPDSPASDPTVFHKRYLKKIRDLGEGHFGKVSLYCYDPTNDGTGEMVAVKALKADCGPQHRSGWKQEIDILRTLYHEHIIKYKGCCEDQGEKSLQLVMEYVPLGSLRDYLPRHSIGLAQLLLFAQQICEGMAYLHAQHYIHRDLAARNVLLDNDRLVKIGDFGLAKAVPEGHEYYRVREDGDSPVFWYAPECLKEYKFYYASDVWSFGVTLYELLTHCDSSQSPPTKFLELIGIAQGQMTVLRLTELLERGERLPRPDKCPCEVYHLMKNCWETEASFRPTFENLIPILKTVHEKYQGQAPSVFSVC
In short: as §1

JAK1 = target: T3, JAK1 (Homo sapiens, UniProt P23458); assay: Kinobeads assay, JAK1; settings: mixed Molt4/Ramos lysate, read-out: Inhibition values (IC50) JAK1
T3 construct: endogenous in cells; host or cells: Molt4 (ATCC CRL-1582) and Ramos (ATCC CRL-1596), mixed lysate 1:2
T3 sequence (P23458 whole entry): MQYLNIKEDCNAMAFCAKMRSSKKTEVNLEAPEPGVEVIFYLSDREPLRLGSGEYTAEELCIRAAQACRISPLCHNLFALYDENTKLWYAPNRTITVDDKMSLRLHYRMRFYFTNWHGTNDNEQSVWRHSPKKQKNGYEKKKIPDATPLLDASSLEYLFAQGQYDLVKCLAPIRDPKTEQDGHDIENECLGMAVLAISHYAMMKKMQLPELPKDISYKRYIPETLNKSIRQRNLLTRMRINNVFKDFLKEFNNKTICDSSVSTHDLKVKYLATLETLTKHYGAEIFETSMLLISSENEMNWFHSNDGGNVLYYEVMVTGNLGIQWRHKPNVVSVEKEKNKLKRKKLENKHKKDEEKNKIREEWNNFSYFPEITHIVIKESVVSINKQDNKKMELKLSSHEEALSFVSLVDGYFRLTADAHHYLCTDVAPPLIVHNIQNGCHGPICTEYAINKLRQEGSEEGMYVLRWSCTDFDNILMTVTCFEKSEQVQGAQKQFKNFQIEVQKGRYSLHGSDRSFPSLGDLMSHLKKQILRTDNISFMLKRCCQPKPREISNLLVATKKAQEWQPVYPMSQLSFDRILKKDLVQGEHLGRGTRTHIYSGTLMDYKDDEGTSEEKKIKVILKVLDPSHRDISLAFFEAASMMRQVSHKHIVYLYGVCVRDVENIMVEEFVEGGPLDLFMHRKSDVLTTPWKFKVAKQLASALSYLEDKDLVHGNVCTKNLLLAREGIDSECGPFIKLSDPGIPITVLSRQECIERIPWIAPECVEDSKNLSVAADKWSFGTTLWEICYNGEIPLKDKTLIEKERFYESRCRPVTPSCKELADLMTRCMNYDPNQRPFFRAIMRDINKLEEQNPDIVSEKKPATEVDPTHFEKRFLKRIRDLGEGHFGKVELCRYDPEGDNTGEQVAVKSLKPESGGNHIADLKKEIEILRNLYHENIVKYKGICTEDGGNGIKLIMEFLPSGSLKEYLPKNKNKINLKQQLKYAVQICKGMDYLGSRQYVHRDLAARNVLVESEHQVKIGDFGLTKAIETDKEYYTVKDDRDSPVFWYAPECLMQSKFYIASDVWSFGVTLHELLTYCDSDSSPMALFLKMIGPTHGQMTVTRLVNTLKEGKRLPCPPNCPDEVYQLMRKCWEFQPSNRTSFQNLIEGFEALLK
In short: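 Mixed Molt4/Ramos cell lysate (1:2) was incubated 3 hours in the cold with kinobeads and a 9-step 1:3 compound dilution series. The no-compound control carried 2% DMSO. Bead-bound JAK1 was eluted, detected by antibody dot blot with infrared fluorescence, and IC50 derived from dose-response curves.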

T1 sequence (O60674 whole entry): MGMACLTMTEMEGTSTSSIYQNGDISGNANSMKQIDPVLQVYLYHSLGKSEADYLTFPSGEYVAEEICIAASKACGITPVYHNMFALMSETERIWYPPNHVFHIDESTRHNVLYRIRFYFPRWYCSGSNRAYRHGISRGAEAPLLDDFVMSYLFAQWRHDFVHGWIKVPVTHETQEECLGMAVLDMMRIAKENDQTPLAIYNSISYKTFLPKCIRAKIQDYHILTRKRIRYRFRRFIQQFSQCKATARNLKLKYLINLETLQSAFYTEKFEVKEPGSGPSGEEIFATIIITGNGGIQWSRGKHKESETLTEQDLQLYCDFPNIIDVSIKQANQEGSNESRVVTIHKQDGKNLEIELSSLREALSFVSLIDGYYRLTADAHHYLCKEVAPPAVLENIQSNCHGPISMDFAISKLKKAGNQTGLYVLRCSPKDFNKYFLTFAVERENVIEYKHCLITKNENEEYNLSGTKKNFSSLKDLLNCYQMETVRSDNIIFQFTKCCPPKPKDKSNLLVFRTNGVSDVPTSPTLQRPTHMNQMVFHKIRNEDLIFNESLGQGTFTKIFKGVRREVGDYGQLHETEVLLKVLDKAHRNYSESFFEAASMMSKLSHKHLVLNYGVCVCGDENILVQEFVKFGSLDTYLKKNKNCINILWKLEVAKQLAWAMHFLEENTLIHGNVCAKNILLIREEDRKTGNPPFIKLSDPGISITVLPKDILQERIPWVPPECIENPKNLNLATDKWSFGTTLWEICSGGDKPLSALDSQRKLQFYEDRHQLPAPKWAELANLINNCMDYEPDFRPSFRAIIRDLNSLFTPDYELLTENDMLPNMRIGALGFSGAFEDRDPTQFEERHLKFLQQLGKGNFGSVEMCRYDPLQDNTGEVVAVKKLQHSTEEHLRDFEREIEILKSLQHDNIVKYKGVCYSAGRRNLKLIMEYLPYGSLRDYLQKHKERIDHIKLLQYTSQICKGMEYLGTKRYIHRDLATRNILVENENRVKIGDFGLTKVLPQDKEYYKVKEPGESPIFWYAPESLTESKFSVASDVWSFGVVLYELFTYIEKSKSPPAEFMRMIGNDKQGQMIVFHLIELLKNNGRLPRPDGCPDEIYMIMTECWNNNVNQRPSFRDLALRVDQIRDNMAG

| IC50 (JAK2) [nM] | IC50 (TYK2) [nM] | IC50 (JAK1) [nM] | SMILES |
| --- | --- | --- | --- |
| 1000 to 10000 | 100 to 1000 | 100 to 1000 | CC(C)NC(=O)Cn1cc(Nc2ncc(Cl)c(N[C@H](CO)c3ccccc3)n2)cn1 [Compound 67] |
| ≥ 10000 | 1000 to 10000 | 1000 to 10000 | COc1cccc([C@@H](CO)Nc2nc(Nc3cnn(CC(N)=O)c3)ncc2Cl)c1 [Compound 84] |
| ≥ 10000 | 1000 to 10000 | 1000 to 10000 | COc1cccc([C@@H](CO)Nc2nc(Nc3cnn(C)c3)ncc2Cl)c1 [Compound 82] |
| 1000 to 10000 | 1000 to 10000 | 100 to 1000 | O=C(NCCO)[C@@H](Nc1nc(Nc2cnn(CCO)c2)ncc1Cl)c1ccccc1 [Compound 47] |
| 1000 to 10000 | 100 to 1000 | 100 to 1000 | NC(=O)Cn1cc(Nc2ncc(Cl)c(N[C@H](CO)c3ccccc3)n2)cn1 [Compound 56] |
| 1000 to 10000 | 1000 to 10000 | 1000 to 10000 | CC(C)(C(N)=O)n1cc(Nc2ncc(Cl)c(N[C@H](CO)c3ccccc3F)n2)cn1 [Compound 73] |
| 1000 to 10000 | 1000 to 10000 | 1000 to 10000 | COCCNC(=O)[C@@H](Nc1nc(Nc2cnn(C)c2)ncc1Cl)c1ccccc1 [Compound 29] |
| 1000 to 10000 | 1000 to 10000 | 1000 to 10000 | CN(C)C(=O)[C@@H](Nc1nc(Nc2cnn(CCO)c2)ncc1Cl)c1ccccc1 [Compound 26] |
| 1000 to 10000 | 100 to 1000 | 100 to 1000 | CN(CC#N)C(=O)Cn1cc(Nc2ncc(Cl)c(N[C@H](CO)c3ccccc3)n2)cn1 [Compound 70] |
| 1000 to 10000 | 100 to 1000 | 100 to 1000 | CN(C)C(=O)Cn1cc(Nc2ncc(Cl)c(N[C@H](CO)c3ccccc3)n2)cn1 [Compound 30] |
| 1000 to 10000 | 1000 to 10000 | 1000 to 10000 | CNC(=O)Cn1cc(Nc2ncc(Cl)c(NC(CO)c3ccccc3F)n2)cn1 (stereo not drawn) [Compound 33] |
| ≥ 10000 | 1000 to 10000 | 1000 to 10000 | Cn1cc(Nc2ncc(Cl)c(NC(CO)c3cccc(Br)c3)n2)cn1 (stereo not drawn) [Compound 52] |
| ≥ 10000 | 1000 to 10000 | 1000 to 10000 | COC(=O)C(Nc1nc(Nc2cnn(C)c2)ncc1Cl)c1ccccc1 (stereo not drawn) [Compound 16] |
| 1000 to 10000 | 100 to 1000 | 1000 to 10000 | CC(O)Cn1cc(Nc2ncc(Cl)c(NC(CO)c3c(F)cccc3F)n2)cn1 (stereo not drawn) [Compound 42] |
| 1000 to 10000 | 100 to 1000 | < 100 | NC(=O)Cn1cc(Nc2ncc(Cl)c(N[C@H](CO)c3ccccc3F)n2)cn1 [Compound 78] |
| ≥ 10000 | 1000 to 10000 | > 10000 | OCCn1ccc(Nc2ncc(Cl)c(NC(CO)c3c(F)cccc3F)n2)n1 (stereo not drawn) [Compound 45] |
| ≥ 10000 | 1000 to 10000 | 1000 to 10000 | CC(C)(O)Cn1cc(Nc2ncc(Cl)c(NC(CO)c3ccccc3F)n2)cn1 (stereo not drawn) [Compound 57] |
| 1000 to 10000 | 1000 to 10000 | 1000 to 10000 | CC(C)(O)Cn1cc(Nc2ncc(Cl)c(NC(CO)c3cccc(F)c3)n2)cn1 (stereo not drawn) [Compound 61] |
| ≥ 10000 | 1000 to 10000 | 1000 to 10000 | Cc1cnc(Nc2cnn(CCO)c2)nc1NC(CO)c1ccccc1 (stereo not drawn) [Compound 12] |
| 1000 to 10000 | 1000 to 10000 | 100 to 1000 | COCCNC(=O)[C@@H](Nc1nc(Nc2cnn(CCO)c2)ncc1Cl)c1ccccc1 [Compound 48] |
| 1000 to 10000 | 1000 to 10000 | 1000 to 10000 | COc1cccc([C@@H](CO)Nc2nc(Nc3cnn(CCO)c3)ncc2Cl)c1 [Compound 83] |
| 1000 to 10000 | 1000 to 10000 | 1000 to 10000 | Cc1cnc(Nc2cnn(CC(F)F)c2)nc1N[C@H](CO)c1cc(F)cc(F)c1 [Compound 167] |
| 1000 to 10000 | 100 to 1000 | 100 to 1000 | OCCn1cc(Nc2ncc(Cl)c(NC(CO)c3ccccc3F)n2)cn1 (stereo not drawn) [Compound 36] |
| 1000 to 10000 | ≥ 10000 | 1000 to 10000 | Cn1cc(Nc2ncc(Cl)c(N[C@H](C(=O)N3CCCC3)c3ccccc3)n2)cn1 [Compound 34] |
| 1000 to 10000 | 100 to 1000 | 100 to 1000 | CCOC(=O)Cn1cc(Nc2ncc(Cl)c(N[C@H](CO)c3ccccc3)n2)cn1 [Compound 22] |
| ≥ 10000 | 1000 to 10000 | 1000 to 10000 | O=C(NC1CCCC1)[C@@H](Nc1nc(Nc2cnn(CCO)c2)ncc1Cl)c1ccccc1 [Compound 60] |
| 1000 to 10000 | 1000 to 10000 | 1000 to 10000 | Cn1cc(Nc2ncc(Cl)c(N[C@H](C(=O)NCCO)c3ccccc3)n2)cn1 [Compound 46] |
| ≥ 10000 | 1000 to 10000 | 1000 to 10000 | OCCn1cc(Nc2ncc(Cl)c(NC(CO)c3ccc(F)cc3)n2)cn1 (stereo not drawn) [Compound 72] |

| IC50 (JAK2) [nM] | IC50 (TYK2) [nM] | IC50 (JAK1) [nM] | SMILES |
| --- | --- | --- | --- |
| ≥ 10000 | ≥ 10000 | > 10000 | OCCn1ccc(Nc2ncc(Cl)c(NC(CO)c3cccc(F)c3)n2)n1 (stereo not drawn) [Compound 41] |
| ≥ 10000 | 1000 to 10000 | > 10000 | Cn1cc(Nc2ncc(F)c(NC(CO)c3ccccc3)n2)cn1 (stereo not drawn) [Compound 2] |
| ≥ 10000 | ≥ 10000 | > 10000 | Cn1cc(Nc2ncc(Cl)c(NC(CO)c3cccc(-c4cnn(C)c4)c3)n2)cn1 (stereo not drawn) [Compound 69] |
| ≥ 10000 | ≥ 10000 | > 10000 | Cn1cc(Nc2ncc(Cl)c(N[C@H](C(=O)NC3CCCC3)c3ccccc3)n2)cn1 [Compound 59] |
| ≥ 10000 | ≥ 10000 | 1000 to 10000 | Cn1cc(Nc2ncc(Cl)c(N[C@H](C(=O)N3CCCCC3)c3ccccc3)n2)cn1 [Compound 49] |
| 1000 to 10000 | 1000 to 10000 | 1000 to 10000 | CNC(=O)Cn1cc(Nc2ncc(Cl)c(NC(CO)c3c(F)cccc3F)n2)cn1 (stereo not drawn) [Compound 31] |
| 1000 to 10000 | 1000 to 10000 | 1000 to 10000 | Cn1cc(Nc2ncc(Cl)c(NC(C(=O)O)c3ccccc3)n2)cn1 (stereo not drawn) [Compound 18] |
| 1000 to 10000 | 100 to 1000 | 100 to 1000 | O=C(Cn1cc(Nc2ncc(Cl)c(N[C@H](CO)c3ccccc3)n2)cn1)NC1CC1 [Compound 68] |
| 1000 to 10000 | 100 to 1000 | 100 to 1000 | OCCn1cc(Nc2ncc(Cl)c(NC(CO)c3c(F)cccc3F)n2)cn1 (stereo not drawn) [Compound 43] |
| 1000 to 10000 | 1000 to 10000 | 1000 to 10000 | OCC[C@@H](Nc1nc(Nc2cnn(CCO)c2)ncc1Cl)c1ccccc1 [Compound 65] |
| ≥ 10000 | 1000 to 10000 | 1000 to 10000 | Cn1cc(Nc2ncc(Cl)c(NC(CO)c3ccc(F)cc3)n2)cn1 (stereo not drawn) [Compound 71] |
| ≥ 10000 | ≥ 10000 | > 10000 | Cn1cc(Nc2ncc(Cl)c(NC(CO)c3cccc(N4CC5(COC5)C4)c3)n2)cn1 (stereo not drawn) [Compound 53] |
| 1000 to 10000 | 1000 to 10000 | 1000 to 10000 | Cn1cc(Nc2ncc(Cl)c(NC(CO)c3cccc(F)c3)n2)cn1 (stereo not drawn) [Compound 40] |
| ≥ 10000 | ≥ 10000 | 1000 to 10000 | CN(C)C(=O)[C@@H](Nc1nc(Nc2cnn(C)c2)ncc1Cl)c1ccccc1 [Compound 25] |
| 1000 to 10000 | 1000 to 10000 | 100 to 1000 | CNC(=O)Cn1cc(Nc2ncc(Cl)c(N[C@H](CO)c3ccccc3)n2)cn1 [Compound 23, (S)-2-(4-((5-chloro-4-((2-hydroxy-1-phenylethyl)amino)pyrimidin-2-yl)amino)-1H-pyrazol-1-yl)-N-methylacetamide] |
| 1000 to 10000 | 1000 to 10000 | 100 to 1000 | CC(O)Cn1cc(Nc2ncc(Cl)c(NC(CO)c3cccc(F)c3)n2)cn1 (stereo not drawn) [Compound 38] |
| 1000 to 10000 | 100 to 1000 | 100 to 1000 | OCCn1cc(Nc2ncc(Cl)c(N[C@H](CO)c3ccccn3)n2)cn1 [Compound 80] |
| ≥ 10000 | ≥ 10000 | > 10000 | Cn1ccc(Nc2ncc(Cl)c(N[C@H](CO)c3ccccc3)n2)n1 [Compound 11] |
| 100 to 1000 | 100 to 1000 | 1000 to 10000 | O=C(c1cc(Nc2ncc(Cl)c(N[C@H](CO)c3ccccc3)n2)c[nH]1)N1CCOCC1 [Compound 13] |
| 1000 to 10000 | 1000 to 10000 | 1000 to 10000 | CNC(=O)Cn1cc(Nc2ncc(Cl)c(NC(CO)c3cccc(F)c3)n2)cn1 (stereo not drawn) [Compound 32] |
| 1000 to 10000 | 100 to 1000 | 1000 to 10000 | CC(C)OC(=O)Cn1cc(Nc2ncc(Cl)c(N[C@H](CO)c3ccccc3)n2)cn1 [Compound 21] |
| 1000 to 10000 | 100 to 1000 | 100 to 1000 | COc1ccccc1[C@@H](CO)Nc1nc(Nc2cnn(CCO)c2)ncc1Cl [Compound 76] |
| ≥ 10000 | 1000 to 10000 | 1000 to 10000 | CCNC(=O)[C@@H](Nc1nc(Nc2cnn(C)c2)ncc1Cl)c1ccccc1 [Compound 28] |
| ≥ 10000 | 1000 to 10000 | 1000 to 10000 | CC(C)(O)Cn1cc(Nc2ncc(Cl)c(NC(CO)c3c(F)cccc3F)n2)cn1 (stereo not drawn) [Compound 62] |
| ≥ 10000 | 1000 to 10000 | 1000 to 10000 | Cn1cc(Nc2ncc(Cl)c(NC(CO)c3ccccc3)n2)cn1 (stereo not drawn) [Compound 1] |
| ≥ 10000 | 1000 to 10000 | 1000 to 10000 | Cc1cnc(Nc2cnn(CC(F)F)c2)nc1NC(CO)c1c(F)cccc1F (stereo not drawn) [Compound 168] |
| 1000 to 10000 | 1000 to 10000 | 1000 to 10000 | OC[C@@H](Nc1nc(Nc2cn[nH]c2)ncc1Cl)c1ccccc1 [Compound 75] |
